Results: PubChem BioAssay AID2060616 (Molecular Pharmacology Branch, DTP, NCI, 2025)
pIC50: −log10 of the molar value. Where “and” joins values, the source holds several entries; their conditions need not be identical. Equal entries are not always repeated.

Test system: 377384-186-R-J1-PDC complex spheroid viability
Experiment: Anticancer human tumor 377384-186-R-J1-PDC patient-derived pancreatic carcinoma cell line growth inhibition [CLK]
Settings: for viability, T/C: stronger effect = lower value
Outline: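 Multi-cell-type spheroids combined patient-derived tumor cells with HUVEC endothelial cells and human mesenchymal stem cells. Paired agents were dosed in half-log steps down from about clinical Cmax, or from 10 microM where Cmax was unknown.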

[1] = curve of first compound, second compound 0.0316 µM
[2] = curve of first compound, second compound 0.1 µM
[3] = curve of first compound, second compound 0.316 µM
[4] = curve of first compound, second compound 1 µM
[5] = curve of first compound, second compound 3.16 µM
[6] = curve of first compound, second compound 10 µM
[7] = second compound 0.0316 µM, first compound 0.0316 µM
[8] = second compound 0.0316 µM, first compound 0.1 µM
[9] = second compound 0.0316 µM, first compound 0.316 µM
[10] = second compound 0.0316 µM, first compound 1 µM
[11] = second compound 0.0316 µM, first compound 3.16 µM
[12] = second compound 0.0316 µM, first compound 10 µM
[13] = second compound 0.1 µM, first compound 0.0316 µM
[14] = second compound 0.1 µM, first compound 0.1 µM
[15] = second compound 0.1 µM, first compound 0.316 µM
[16] = second compound 0.1 µM, first compound 1 µM
[17] = second compound 0.1 µM, first compound 3.16 µM
[18] = second compound 0.1 µM, first compound 10 µM
[19] = second compound 0.316 µM, first compound 0.0316 µM
[20] = second compound 0.316 µM, first compound 0.1 µM
[21] = second compound 0.316 µM, first compound 0.316 µM
[22] = second compound 0.316 µM, first compound 1 µM
[23] = second compound 0.316 µM, first compound 3.16 µM
[24] = second compound 0.316 µM, first compound 10 µM
[25] = second compound 1 µM, first compound 0.0316 µM
[26] = second compound 1 µM, first compound 0.1 µM
[27] = second compound 1 µM, first compound 0.316 µM
[28] = second compound 1 µM, first compound 1 µM
[29] = second compound 1 µM, first compound 3.16 µM
[30] = second compound 1 µM, first compound 10 µM
[31] = second compound 3.16 µM, first compound 0.0316 µM
[32] = second compound 3.16 µM, first compound 0.1 µM
[33] = second compound 3.16 µM, first compound 0.316 µM
[34] = second compound 3.16 µM, first compound 1 µM
[35] = second compound 3.16 µM, first compound 3.16 µM
[36] = second compound 3.16 µM, first compound 10 µM
[37] = second compound 10 µM, first compound 0.0316 µM
[38] = second compound 10 µM, first compound 0.1 µM
[39] = second compound 10 µM, first compound 0.316 µM
[40] = second compound 10 µM, first compound 1 µM
[41] = second compound 10 µM, first compound 3.16 µM
[42] = second compound 10 µM, first compound 10 µM
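Also: spheroids exposed to agents for 7 days before reading.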
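For viability, T/C in this document: luminescence signal used as a stand-in for viable cells.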

SMILES: C=C(F)C(=O)N1CCN(c2nc(OCC3CCCN3C)nc3c2CCN(c2cccc4cccc(Cl)c24)C3)CC1CC#N (configuration not stated) + CNC(=O)c1ccc(Nc2nc(OC3CCCC3)c3c(-c4ccc5nc(C)oc5c4)c[nH]c3n2)c(OC)c1
- pIC50 [1]: 5.69
- pIC50 [2]: 6.84
- pIC50 [3]: > 7.50
- pIC50 [4]: > 7.50
- pIC50 [5]: > 7.50
- pIC50 [6]: > 7.50
- viability, T/C [7]: 99.6%
- viability, T/C [8]: 93.8%
- viability, T/C [9]: 102%
- viability, T/C [10]: 96.6%
- viability, T/C [11]: 22.3%
- viability, T/C [12]: 0.88%
- viability, T/C [13]: 54.3%
- viability, T/C [14]: 50.9%
- viability, T/C [15]: 45.7%
- viability, T/C [16]: 40.4%
- viability, T/C [17]: 23.1%
- viability, T/C [18]: 0.37%
- viability, T/C [19]: 21.2%
- viability, T/C [20]: 22.8%
- viability, T/C [21]: 20.7%
- viability, T/C [22]: 22.1%
- viability, T/C [23]: 12%
- viability, T/C [24]: 0.26%
- viability, T/C [25]: 19.5%
- viability, T/C [26]: 19.3%
- viability, T/C [27]: 19%
- viability, T/C [28]: 17.9%
- viability, T/C [29]: 11.1%
- viability, T/C [30]: 0.2%
- viability, T/C [31]: 20.5%
- viability, T/C [32]: 20.9%
- viability, T/C [33]: 18.3%
- viability, T/C [34]: 20.3%
- viability, T/C [35]: 8.66%
- viability, T/C [36]: 0.22%
- viability, T/C [37]: 20.6%
- viability, T/C [38]: 21.4%
- viability, T/C [39]: 21.9%
- viability, T/C [40]: 17.1%
- viability, T/C [41]: 8.61%
- viability, T/C [42]: 0.3%

SMILES: C=CC(=O)N1CCN(c2nc(=O)n(-c3c(C)ccnc3C(C)C)c3nc(-c4c(O)cccc4F)c(F)cc23)C(C)C1 (configuration not stated) + CN1CCN(c2cc(C(=O)Nc3cc4cc(-c5cnn(C)c5)ccc4cn3)ccn2)CC1
- pIC50 [1]: < 5.00
- pIC50 [2]: < 5.00
- pIC50 [3]: > 7.50
- pIC50 [4]: > 7.50
- pIC50 [5]: > 7.50
- pIC50 [6]: > 7.50
- viability, T/C [7]: 95.5%
- viability, T/C [8]: 101%
- viability, T/C [9]: 114%
- viability, T/C [10]: 131%
- viability, T/C [11]: 117%
- viability, T/C [12]: 101%
- viability, T/C [13]: 104%
- viability, T/C [14]: 92.8%
- viability, T/C [15]: 110%
- viability, T/C [16]: 112%
- viability, T/C [17]: 116%
- viability, T/C [18]: 88.3%
- viability, T/C [19]: 27.9%
- viability, T/C [20]: 35.2%
- viability, T/C [21]: 38.1%
- viability, T/C [22]: 41.4%
- viability, T/C [23]: 37.6%
- viability, T/C [24]: 24.7%
- viability, T/C [25]: 1.29%
- viability, T/C [26]: 1.17%
- viability, T/C [27]: 1.31%
- viability, T/C [28]: 1.24%
- viability, T/C [29]: 2.37%
- viability, T/C [30]: 2.29%
- viability, T/C [31]: 0.53%
- viability, T/C [32]: 0.78%
- viability, T/C [33]: 0.7%
- viability, T/C [34]: 0.78%
- viability, T/C [35]: 1.84%
- viability, T/C [36]: 3.69%
- viability, T/C [37]: 0.44%
- viability, T/C [38]: 0.59%
- viability, T/C [39]: 1.65%
- viability, T/C [40]: 0.86%
- viability, T/C [41]: 1.07%
- viability, T/C [42]: 0.98%

SMILES: O=c1[nH]cc(F)c(=O)[nH]1
- viability, T/C (compound 0.0316 µM): 88.5% and 94.6%
- viability, T/C (compound 0.1 µM): 82.7% and 110%
- viability, T/C (compound 0.316 µM): 93.3% and 88.5%
- viability, T/C (compound 1 µM): 68.9% and 68.5%
- viability, T/C (compound 3.16 µM): 50.5% and 51.5%
- viability, T/C (compound 10 µM): 45.1% and 41.7%
- pIC50 (curve of compound): 5.55 and 5.52

SMILES: CC1COCCN1c1cc(C2(S(C)(=N)=O)CC2)nc(-c2ccnc3[nH]ccc23)n1 (configuration not stated) + CNC(=O)c1ccc(Nc2nc(OC3CCCC3)c3c(-c4ccc5nc(C)oc5c4)c[nH]c3n2)c(OC)c1
- pIC50 [1]: 5.59
- pIC50 [2]: 6.63
- pIC50 [3]: > 7.50
- pIC50 [4]: > 7.50
- pIC50 [5]: > 7.50
- pIC50 [6]: > 7.50
- viability, T/C [7]: 105%
- viability, T/C [8]: 110%
- viability, T/C [9]: 106%
- viability, T/C [10]: 83.5%
- viability, T/C [11]: 43.5%
- viability, T/C [12]: 17.4%
- viability, T/C [13]: 62.4%
- viability, T/C [14]: 56.8%
- viability, T/C [15]: 52%
- viability, T/C [16]: 41.1%
- viability, T/C [17]: 23.7%
- viability, T/C [18]: 19.9%
- viability, T/C [19]: 21.3%
- viability, T/C [20]: 23.4%
- viability, T/C [21]: 18.6%
- viability, T/C [22]: 16.9%
- viability, T/C [23]: 13.8%
- viability, T/C [24]: 9.16%
- viability, T/C [25]: 20.6%
- viability, T/C [26]: 20.9%
- viability, T/C [27]: 22.3%
- viability, T/C [28]: 17.9%
- viability, T/C [29]: 12%
- viability, T/C [30]: 7.93%
- viability, T/C [31]: 20.2%
- viability, T/C [32]: 21.2%
- viability, T/C [33]: 20.6%
- viability, T/C [34]: 18.9%
- viability, T/C [35]: 14.1%
- viability, T/C [36]: 9.68%
- viability, T/C [37]: 20.4%
- viability, T/C [38]: 19%
- viability, T/C [39]: 21.5%
- viability, T/C [40]: 19.4%
- viability, T/C [41]: 12.4%
- viability, T/C [42]: 9.21%

SMILES: O=c1[nH]cc(F)c(=O)[nH]1 + CNC(=O)c1ccc(Nc2nc(OC3CCCC3)c3c(-c4ccc5nc(C)oc5c4)c[nH]c3n2)c(OC)c1
- pIC50 [1]: 5.44
- pIC50 [2]: 7.33
- pIC50 [3]: > 7.50
- pIC50 [4]: > 7.50
- pIC50 [5]: > 7.50
- pIC50 [6]: > 7.50
- viability, T/C [7]: 98%
- viability, T/C [8]: 98.3%
- viability, T/C [9]: 96%
- viability, T/C [10]: 82.1%
- viability, T/C [11]: 50.3%
- viability, T/C [12]: 46.3%
- viability, T/C [13]: 49.6%
- viability, T/C [14]: 50.9%
- viability, T/C [15]: 45.4%
- viability, T/C [16]: 54.5%
- viability, T/C [17]: 41.6%
- viability, T/C [18]: 43.5%
- viability, T/C [19]: 20.4%
- viability, T/C [20]: 20.3%
- viability, T/C [21]: 16.7%
- viability, T/C [22]: 16.4%
- viability, T/C [23]: 14.5%
- viability, T/C [24]: 14%
- viability, T/C [25]: 22%
- viability, T/C [26]: 17.8%
- viability, T/C [27]: 19.2%
- viability, T/C [28]: 14.9%
- viability, T/C [29]: 13.2%
- viability, T/C [30]: 10.7%
- viability, T/C [31]: 20.2%
- viability, T/C [32]: 19.7%
- viability, T/C [33]: 17.6%
- viability, T/C [34]: 16.7%
- viability, T/C [35]: 12.6%
- viability, T/C [36]: 9.93%
- viability, T/C [37]: 16.8%
- viability, T/C [38]: 17.2%
- viability, T/C [39]: 17.1%
- viability, T/C [40]: 16%
- viability, T/C [41]: 10.8%
- viability, T/C [42]: 11.4%

SMILES: COc1ccc([C@@H](O)c2cc(-c3ncnc4cc(N5CCOCC5)ccc34)c(F)cc2Cl)nn1 + CNC(=O)c1ccc(Nc2nc(OC3CCCC3)c3c(-c4ccc5nc(C)oc5c4)c[nH]c3n2)c(OC)c1
- pIC50 [1]: 5.79
- pIC50 [2]: > 7.50
- pIC50 [3]: > 7.50
- pIC50 [4]: > 7.50
- pIC50 [5]: > 7.50
- pIC50 [6]: > 7.50
- viability, T/C [7]: 93.6%
- viability, T/C [8]: 99.5%
- viability, T/C [9]: 92%
- viability, T/C [10]: 54.9%
- viability, T/C [11]: 49.6%
- viability, T/C [12]: 29.4%
- viability, T/C [13]: 36.8%
- viability, T/C [14]: 33.5%
- viability, T/C [15]: 40.5%
- viability, T/C [16]: 35%
- viability, T/C [17]: 26.5%
- viability, T/C [18]: 19.5%
- viability, T/C [19]: 16.1%
- viability, T/C [20]: 14.4%
- viability, T/C [21]: 17.4%
- viability, T/C [22]: 16.6%
- viability, T/C [23]: 16.1%
- viability, T/C [24]: 13.6%
- viability, T/C [25]: 15.9%
- viability, T/C [26]: 18.2%
- viability, T/C [27]: 18.3%
- viability, T/C [28]: 15.9%
- viability, T/C [29]: 15.3%
- viability, T/C [30]: 15.5%
- viability, T/C [31]: 14.7%
- viability, T/C [32]: 17.8%
- viability, T/C [33]: 18.1%
- viability, T/C [34]: 16.2%
- viability, T/C [35]: 16.6%
- viability, T/C [36]: 15.5%
- viability, T/C [37]: 15.7%
- viability, T/C [38]: 13.2%
- viability, T/C [39]: 17.6%
- viability, T/C [40]: 15.7%
- viability, T/C [41]: 17.3%
- viability, T/C [42]: 15.4%
